# Data reported in patent EP0765662A1, “HIV GROWTH INHIBITORY COMPOSITION” (Kochi, Mutsuyuki, priority 1994, dated 1995).
# Structures can show the parent of a compound that is named as a salt.
# Tested on: HIVBRU
# Assay: HIV-p24 antigen released from HIV-infected A3.01 cells stimulated with TNF-α
# Format: cell-based
# Details: TNF-α 10 units/ml; for Amount of the HIV p24 antigen: HIV-infected A3.01 cells
# Description: In view of all these test results, it appears that the inhibitory activity of SBA against the replication of HIV-1 is not attributable to that SBA directly acts on HIV so as to make lose the infectivity (infectious power) of HIV. (c) Test of examining the inhibitory activity of SBA against such replication of the viral particles of HIV which is induced when a tumor necrosis factor (TNF-α) is introduced into the HIV-infected A3.01 cells AIDS virus, HIVBRU (its reverse transcriptase activity, 0.03 cpm/cell) and 6 x 10^6 cells of the A3.01 cell (HAT-susceptible CEM cell strain) were mixed and reacted together in a culture medium at 37°C for 1 hour, and thereafter the mixed cells were washed with PBS to remove the excess of the particles of HIV virus therefrom. The A3.01 cells (5 x 10^5 cells) which had been so infected with HIV were then cultivated in various culture media containing TNF-α and SBA at different concentrations of them. The amount of the HIV-p24 antigen (an HIV-structural protein of HIV) which was released in the culture supernatant from the cultivated cells under test was periodically measured during the period of between 0 day to 5th day of the cultivation. The culture medium used for the above-mentioned cultivation of the A3.01 cells was an RPM1-1640 medium comprising 10% of heat-treated embryonic bovine serum, and minor amounts of penicillin, streptomycin, glutamine and mercaptoethanol. The amount of the HIV-p24 antigen produced was measured with lapse of time, and the relationship of the amount of the HIV-p24 antigen to the concentration of SBA is summarily tabulated in Table 4 below.
# In the tests above, the replication of the viral particles of HIV was examined in terms of the amount of the p24 antigen protein produced and appearing in the culture supernatant from the cultivated cells. Thus, the amount of the p24 antigen produced was measured periodically over 6 days after the A3.01 cells were infested with HIV. It was then observed that in the absence of SBA, the replication of the viral particles of HIV was induced in the A3.01 cells by stimulation with 10 units/ml of TNF-α added. […] Thus, the effective amount of SBA has the activity to inhibit the replication of the viral particles of HIV within the cells to an extent as same as AZT, and from this it is expected that SBA is useful similarly to AZT for the therapeutic treatments of AIDS. (d) Tests for evaluating an inhibitory activity of SBA to the formation of giant cells from HIV-infected Molt-4 cells In a similar manner to that in the above Test (c), Molt-4 cells (a CD4-positive human T-cell strain) were infected with AIDS virus, HIVBRU. Thereafter, The HIV-infected Molt-4 cells were mixed with such Molt-4 cells which had no HIV-infection. And the mixture of these cells were cultivated at a high density of the mixed cells in the above-mentioned improved RPM1-1640 medium containing SBA at its different concentrations. Whereupon, there was examined the presence of cell-fused cell(s) (namely, the giant cells) which were formed by fusion of the HIV-infected cells with each other or by fusion of the HIV-infected cells with the HIV-non-infected cells. The formation and appearance of the giant cells was confirmed by microscopic observation. The size of such giant cells is clearly different from the size of the other usual cells. […] Namely, it is shown that SBA has an anti-HIV activity. […] In the initial stage of the transcription of HIV-1 gene, said NFkB, i.e. the transcription regulating factor of the host cells, plays an important role. […] NFkB is known to be a complex protein which is composed by the association of a molecule of protein having a molecular weight of about 50,000 (p50) with a molecule of protein having a molecular weight of about 65,000 (p65). […]
structure (smiles),measurement,setting,value
"O=C1O[C@H]([C@@H]2COC(c3ccccc3)O2)C(O)=C1O (stereo partly drawn) [SBA, 5,6-O-benzylidene-L-ascorbic acid mono-sodium salt]",inhibition at 10 µg/mL,"Human immunodeficiency virus 1, SBA 10 µg/ml, in comparison with the cases when SBA was absent, read-out: inhibition of the replication of the HIV viral particles",50%
same,Amount of the HIV p24 antigen,"SBA 1 µg/ml, 0th day",0 pg/mL
same,Amount of the HIV p24 antigen,"SBA 1 µg/ml, 1st day",0 pg/mL
same,Amount of the HIV p24 antigen,"SBA 1 µg/ml, 2nd day",0 pg/mL
same,Amount of the HIV p24 antigen,"SBA 1 µg/ml, 3rd day",1400 pg/mL
same,Amount of the HIV p24 antigen,"SBA 1 µg/ml, 4th day",2600 pg/mL
same,inhibition of the replication of the viral particles of HIV (in words),"SBA 1 µg/ml, 5th day from the HIV infection",considerably inhibited
same,Amount of the HIV p24 antigen,"SBA 1 µg/ml, 5th day",4000 pg/mL
same,Amount of the HIV p24 antigen,"SBA 10 µg/ml, 0th day",0 pg/mL
same,Amount of the HIV p24 antigen,"SBA 10 µg/ml, 1st day",0 pg/mL
same,Amount of the HIV p24 antigen,"SBA 10 µg/ml, 2nd day",0 pg/mL
same,Amount of the HIV p24 antigen,"SBA 10 µg/ml, 3rd day",800 pg/mL
same,Amount of the HIV p24 antigen,"SBA 10 µg/ml, 4th day",1500 pg/mL
same,Amount of the HIV p24 antigen,"SBA 10 µg/ml, 5th day",2250 pg/mL
same,Amount of the HIV p24 antigen,"SBA 100 µg/ml, 0th day",0 pg/mL
same,Amount of the HIV p24 antigen,"SBA 100 µg/ml, 1st day",0 pg/mL
same,Amount of the HIV p24 antigen,"SBA 100 µg/ml, 2nd day",0 pg/mL
same,Amount of the HIV p24 antigen,"SBA 100 µg/ml, 3rd day",0 pg/mL
same,Amount of the HIV p24 antigen,"SBA 100 µg/ml, 4th day",0 pg/mL
same,Amount of the HIV p24 antigen,"SBA 100 µg/ml, 5th day",0 pg/mL
same,inhibition of the replication of the viral particles of HIV (in words),SBA 100 µg/ml,completely inhibited
